Assay results from patent US5690956A, “Hair care perming agent” (priority 1995, dated 1997).

Assays:
Water solubility of TCEP = assay type: physicochemical
[1] = Stability of TCEP (aqueous acidic media, air oxidation, temperature); assay type: physicochemical
disulfide bonds in hair [2] = experiment: Reduction (cleavage) of disulfide bonds in hair protein; assay type: biochemical, human
Source text: The extent of cleavage of disulfide bonds using thioglycollate depends on the concentration of the reducing agent and on the amount of mechanical stress applied to the hair shaft. In spite of the conditions used in performing a reduction of the disulfide bonds, in prior practice in a laboratory setting, no more than 65-70% of the protein cystine bonds in hair were disrupted. In the actual practice of hair perming, the reduction level is even lower, ranging between 19% and 43%. When using thioglycollate as a reducing agent, the optimal perming condition occurs using ambient temperatures and a 5% (w/v) solution of thioglycollate.
2) The reducing reactions are conducted under conditions of ambient or slightly elevated temperature in a mildly acidic buffer media ranging in a pH from 2.0-5.6 and with a TCEP concentration range of 5-10% w/v. The reaction occurs over a period of about 15 minutes.

human hosts = experiment: Human safety of the reducing agent
[3] = system: hair, especially the cuticle; experiment: Damage to hair (cuticle); set-up: species or system human; settings: vs sulfhydryl reducing agents in alkaline pH
[4] = system: soluble proteins, such as antibodies; settings: in the presence of 6M guanidine or 8M urea; cited from earlier work
disulfide bonds in hair [5] = settings: laboratory setting, prior practice; cited from earlier work
[6] = system: hair, especially the cuticle; settings: elevated pH, usually pH 9-12; prior art; cited from earlier work

Row | Compound | solubility (Water solubility of TCEP) [mg/mL] | resistance to air oxidation ([1]; air) | stability in aqueous acidic media ([1]; aqueous acidic media) | stability when exposed to fluctuations in temperature ([1]; fluctuations in temperature) | reactivity toward other functional groups found in hair (disulfide bonds in hair [2]) | reduction of some of the most stable disulfide bonds in hair (disulfide bonds in hair [2]) | effectiveness in reducing disulfide bonds vs dithiothreitol, mercaptoethanol, or thioglycollic acid (disulfide bonds in hair [2]; acidic pH) | period over which the reducing reaction occurs (disulfide bonds in hair [2]; pH 2.0-5.6, TCEP 5-10% w/v, ambient or slightly elevated temperature) | toxicity to human hosts / safety profile (human hosts) | damage to hair, especially the cuticle [3] | function as reducing agent on soluble proteins [4] | protein cystine bonds in hair disrupted (extent of reduction) (disulfide bonds in hair [5]) | cuticle damage [6]
1 | Cl.O=C(O)CCP(CCC(=O)O)CCC(=O)O [TCEP, Tris-(2-carboxy-ethyl) phosphine hydrochloride] | ~310 | substantially resistant to air oxidation | stable in aqueous acidic media | very stable | essentially non-reactive | Selective and complete reduction | more effective than traditional sulfhydryl reducing agents | about 15 minutes | not toxic to human hosts | lower instance of damaged hair | function well | – | –
2 | O=C(O)CS [thioglycollate, thioglycollic acid] | – | – | – | – | – | – | – | – | – | – | – | 65-70% | severe cuticle damage
